Data: patent publication US10030016B2 (Sunesis Pharmaceuticals, Inc., priority 2009, dated 2018)
Where a name gives a salt, the structure may show the parent alone. Read-outs that look alike come from different tables or passages of the source.

Columns and labels:
[1] = tested on: phospho-akt (Thr308) in PC-3 cells; test: Inhibition of phospho-akt (Thr308) in PC-3 cells, MSD phospho-akt 308 ELISA kit; assay type: cell-based; details: 2 hours, no serum, read-out: EC50
Outline: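 Electrochemiluminescent MSD ELISA of Thr308-phosphorylated Akt after a 2 h serum-free compound exposure of PC-3 cells (15,000/well, plated overnight). Controls: DMSO (high), 5 μM wortmannin (low). Lysate binding overnight at 4 °C; detection antibody 1 h at room temperature.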

PDK1 = PDK1 (Homo sapiens (Human), UniProt O15530); test: PDK1 kinase assay (coupled PDK1/AKT/FAM-crosstide assay, IMAP fluorescence polarization); assay type: biochemical
PDK1, sequence (O15530 51-359): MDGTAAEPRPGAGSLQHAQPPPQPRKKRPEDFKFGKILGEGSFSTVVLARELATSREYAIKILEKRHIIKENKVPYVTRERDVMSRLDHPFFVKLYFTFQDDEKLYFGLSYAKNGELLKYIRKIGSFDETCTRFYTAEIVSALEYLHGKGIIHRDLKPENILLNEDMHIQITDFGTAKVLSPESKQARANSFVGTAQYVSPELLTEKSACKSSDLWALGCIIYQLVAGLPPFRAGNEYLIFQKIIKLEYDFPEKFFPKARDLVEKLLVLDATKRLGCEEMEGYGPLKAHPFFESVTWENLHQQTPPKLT
Outline: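 PDK1 activity is measured indirectly through activation of a PIFtide-fused AKT2 construct that phosphorylates FAM-crosstide (100 nM). The reaction uses 0.75 nM PDK1, 40 μM ATP, 30 min, 25° C, with IMAP polarization detection.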

[2] = Homo sapiens, inhibition of P308 Akt in PC-3 cells, MSD
[3] = inhibition of phospo-PDK1 in vitro
[4] = Homo sapiens, inhibition of P308 Akt in PC-3 cells using MSD

| SMILES | EC50 [1, 2] [µM] | IC50 (PDK1; [3]) [µM] | EC50 [1, 4] [µM] | IC50 (PDK1; inhibition of PDK1 in vitro) [µM] | also measured |
| --- | --- | --- | --- | --- | --- |
| C[C@H](NC(=O)c1nc(C#N)cnc1NCc1ccc(-c2cnc(N)c(CCC3CCCNC3)n2)cc1)c1ccc(F)c(F)c1 (stereo partly drawn) [Example 81] |  |  | 1 to 10 |  | IC50 (PDK1): < 0.1 µM |
| Nc1ncnc2c1c(-c1ccc(CNc3ncc(C(F)(F)F)cc3C(=O)Nc3ccc(F)cc3)cc1)cn2CCO [Example 324, 2-(4-(4-amino-7-(2-hydroxyethyl)-7H-pyrrolo [2,3-d]pyrimidin-5-yl)benzylamino)-N-(4-fluorophenyl)-5-(trifluoromethyl)nicotinamide] |  |  | < 1 | < 0.1 |  |
| COC(=O)c1ccc(-c2ccc(CNc3ncc(C#N)cc3C(=O)N[C@@H](C)c3ccc(F)cc3)cc2)cn1 [Example 112, (S)-methyl 5-(4-((5-cyano-3-(1-(4-fluorophenyl)ethyl-carbamoyl)pyridin-2-ylamino)methyl)phenyl)picolinate] |  |  | > 10 | > 5 |  |
| C[C@H](NC(=O)c1nc(C#N)cnc1NCc1ccc(-c2cnc(N)c(N3CCC[C@@H](N)C3)n2)cc1)c1ccc(F)c(F)c1 [Example 190, 3-{4-[5-Amino-6-((R)-3-amino-piperidin-1-yl)-pyrazin-2-yl]-benzylamino}-6-cyano-pyrazine-2-carboxylic acid [(S)-1-(3,4-difluoro-phenyl)-ethyl]-amide] |  |  | 1 to 10 | < 0.1 |  |
| C[C@H](NC(=O)c1cc(C#N)cnc1NCc1ccc(-c2cnc(N)c(C(=O)O)c2)cc1)c1ccc(F)cc1 [Example 148, (S)-2-amino-5-(4-((5-cyano-3-(1-(4-fluorophenyl)ethylcarbamoyl)pyridin-2-ylamino)methyl)phenyl) nicotinic acid] |  |  | > 10 | < 0.1 |  |
| Nc1ncc(-c2ccc(CNc3ncc(C(F)(F)F)cc3C(=O)Nc3ccc(F)cc3)cc2)nc1-c1cccc(O)c1 [Example 236, 2-{4-[5-Amino-6-(3-hydroxy-phenyl)-pyrazin-2-yl]-benzylamino}-N-(4-fluoro-phenyl)-5-trifluoromethyl-nicotinamide] |  |  | 1 to 10 | < 0.1 |  |
| Nc1n[nH]c2ncc(-c3ccc(CNc4ncc(C(F)(F)F)cc4C(=O)NC4CCCCC4)cc3)cc12 [Example 297, 2-(4-(3-amino-1H-pyrazolo [3,4-b]pyridin-5-yl)benzylamino)-N-cyclohexyl-5-(trifluoromethyl)nicotinamide] |  |  | < 1 | < 0.1 |  |
| C[C@H](NC(=O)c1nc(C#N)cnc1NCc1ccc(-c2cnc(N)c(NCC(O)CO)n2)cc1)c1ccc(F)c(F)c1 (stereo partly drawn) [Example 244, 3-{4-[5-Amino-6-(2,3-dihydroxy-propylamino)-pyrazin-2-yl]-benzylamino}-6-cyano-pyrazine-2-carboxylic acid [(S)-1-(3,4-difluoro-phenyl)-ethyl]-amide] |  |  | < 1 | < 0.1 |  |
| Nc1ncc(-c2ccc(CNc3ncc(C(F)(F)F)cc3C(=O)Nc3ccc(F)cc3)cc2)nc1O[C@H]1CCNC1 [Example 163, 2-{4-[5-Amino-6-((S)-pyrrolidin-3-yloxy)-pyrazin-2-yl]-benzylamino}-N-(4-fluoro-phenyl)-5-trifluoromethyl-nicotinamide] |  |  | < 1 | < 0.1 |  |
| C[C@@H](NC(=O)c1cc(C(F)(F)F)cnc1NCc1ccc(-c2cnc3[nH]nc(N)c3c2)cc1)c1ccc(Br)cc1 [Example 275, (R)-2-(4-(3-amino-1H-pyrazolo[3,4-b]pyridin-5-yl)benzylamino)-N-(1-(4-bromophenyl)ethyl)-5-(trifluoromethyl) nicotinamide] |  |  | > 10 | > 5 |  |
| Nc1ncnc2ccc(-c3csc(Nc4ncccc4C(=O)NCc4ccc(F)c(F)c4)n3)cc12 [Ex. 13, 2-(4-(4-aminoquinazolin-6-yl)thiazol-2-ylamino)-N-(3,4-difluorobenzyl)-nicotinamide] | > 10 | 1 to 5 |  |  |  |
| C[C@H](NC(=O)c1nccnc1NCc1ccc(-c2cnc3[nH]c(=O)[nH]c3c2)cc1)c1ccc(F)cc1 [Example 357, (S)-N-(1-(4-fluorophenyl)ethyl)-3-(4-(2-oxo-2,3-dihydro-1H-imidazo[4,5-b]pyridin-6-yl)benzylamino) pyrazine-2-carboxamide] |  |  | < 1 | < 0.1 |  |
| N#Cc1cnc(NCc2ccc(-c3cnc4[nH]nc(N)c4c3)cc2)c(C(=O)NCc2cncc(F)c2)n1 [Example 26, 3-(4-(3-amino-1H-pyrazolo[3,4-b]pyridin-5-yl)benzylamino)-6-cyano-N-((5-fluoropyridin-3-yl)methyl)pyrazine-2-carboxamide] | < 1 | < 0.1 |  |  |  |
| C[C@H](NC(=O)c1cc(C#N)cnc1N[C@H](CC(=O)O)c1ccc(-c2c[nH]c3ncnc(N)c23)cc1)c1ccc(F)cc1 [Example 45, (R)-3-(4-(4-amino-7H-pyrrolo[2,3-d]pyrimidin-5-yl)phenyl)-3-(5-cyano-3-((S)-1-(4-fluorophenyl)ethylcarbamoyl)pyridin-2-ylamino)propanoic acid] |  |  |  | 0.1 to 1 | EC50 ([1]; Homo sapiens, PC-3, 2 h, inhibition of P308 Akt in PC-3 cells using MSD): > 10 µM |
| CC(N)CCc1nc(-c2ccc(CNc3ncc(C(F)(F)F)cc3C(=O)Nc3ccc(F)cc3)cc2)cnc1N (stereo not drawn) [Example 86, 2-{4-[5-Amino-6-(3-amino-butyl)-pyrazin-2-yl]-benzylamino}-N-(4-fluoro-phenyl)-5-trifluoro-methyl-nicotinamide] |  |  |  | < 0.1 | EC50 ([1]; inhibition of P308 Akt in PC-3 cells using MSD): < 1 µM |
| CC(C)Oc1cc(CNc2ncccc2C(=O)N(C)c2ccc(F)cc2)cc(-c2c[nH]c3ncc(C(=O)NC4CC4)cc23)c1 [Example 4.1.9, N-cyclopropyl-3-{3-[({3-[(4-fluorophenyl)(methyl)carbamoyl]pyridin-2-yl}amino)methyl]-5-(propan-2-yloxy)phenyl}-1H-pyrrolo[2,3-b] pyridine-5-carboxamide] | 1 to 10 | > 5 |  |  |  |

Further lines, with some results ahead:

| EC50 [1, 2] [µM] | IC50 (PDK1; [3]) [µM] | EC50 [1, 4] [µM] | IC50 (PDK1; inhibition of PDK1 in vitro) [µM] | SMILES | also measured |
| --- | --- | --- | --- | --- | --- |
| > 10 | 0.1 to 1 |  |  | O=C(NCc1ccc(F)c(F)c1)c1cccnc1Nc1cccc(-c2cccc3c2CNC3=O)c1 [Example 17.1, N-(3,4-difluorobenzyl)-2-(3-(1-oxoisoindolin-4-yl)phenylamino)-nicotinamide] |  |
| 1 to 10 | < 0.1 |  |  | Nc1ncnc2ccc(-c3ccc(CNc4ncccc4C(=O)NCc4ccc(F)c(F)c4F)s3)cc12 [Example 3.16, 2-({[5-(4-aminoquinazolin-6-yl)thiophen-2-yl]methyl}amino)-N-(2,3,4-trifluorobenzyl)pyridine-3-carboxamide (TFA salt)] |  |
| > 10 | > 5 |  |  | Nc1ncnc2ccc(-c3ccc(CNc4ncccc4C(=O)NC4CCCCCC4)s3)cc12 [Example 3.30, 2-({[5-(4-aminoquinazolin-6-yl)thiophen-2-yl]methyl}amino)-N-cycloheptylpyridine-3-carboxamide (TFA salt)] |  |
|  | 0.1 to 1 |  |  | CC(NC(=O)c1cccnc1NCc1ccc(-c2ccc3ncnc(N)c3c2)s1)c1ccc(F)c(F)c1 (stereo not drawn) [Example 3.19, 2-({[5-(4-aminoquinazolin-6-yl)thiophen-2-yl]methyl}amino)-N-[1-(3,4-difluorophenyl)ethyl] pyridine-3-carboxamide (TFA salt)] | EC50 ([1]; Homo sapiens, PC-3, 2 h, inhibition of P308 Akt in PC-3 cells, MSD): > 10 µM |
| 1 to 10 | > 5 |  |  | CCNC(=O)c1cccnc1NCc1cccc(-c2c[nH]c3ncccc23)c1 [Example 1.11, N-ethyl-2-{[3-(1H-pyrrolo[2,3-b]pyridin-3-yl)benzyl]amino}pyridine-3-carboxamide] |  |
| < 1 | < 0.1 |  |  | Nc1ncnc2ccc(-c3ccc(CNc4nccc5c4C(=O)N(Cc4ccc(F)c(F)c4)CC5)s3)cc12 [Ex. 7.18, 8-({[5-(4-aminoquinazolin-6-yl)thiophen-2-yl]methyl}amino)-2-(3,4-difluorobenzyl)-3,4-dihydro-2,7-naphthyridin-1(2H)-one] |  |
| > 10 | 0.1 to 1 |  |  | CC(C)c1cnc(NCc2ccc(-c3ccc4ncnc(N)c4c3)s2)c(C(=O)NCc2ccc(F)c(F)c2)n1 [Ex. 10.4, 3-({[5-(4-aminoquinazolin-6-yl)thiophen-2-yl]methyl}amino)-N-(3,4-difluorobenzyl)-6-(propan-2-yl)pyrazine-2-carboxamide] |  |
| < 1 | < 0.1 |  |  | N#Cc1cnc(N[C@@H](COc2ccc3[nH]c(=O)[nH]c3c2)c2ccccc2)c(C(=O)NCc2ccc(F)cc2)n1 [Example 16.12, (R)-6-cyano-N-(4-fluorobenzyl)-3-(2-(2-oxo-2,3-dihydro-1H-benzo[d]imidazol-5-yloxy)-1-phenylethylamino) pyrazine-2-carboxamide] |  |
| < 1 | 0.1 to 1 |  |  | C[C@H](NC(=O)c1nccnc1NCc1ccc(-c2cc3c(N)ncnc3cn2)s1)c1ccc(F)c(F)c1 [Example 3.78, 3-({[5-(4-aminopyrido[3,4-d]pyrimidin-6-yl)thiophen-2-yl]methyl}amino)-N-[(1S)-1-(3,4-difluorophenyl)ethyl] pyrazine-2-carboxamide (TFA salt)] |  |
| 1 to 10 | < 0.1 |  |  | COCCNc1ncnc2ccc(-c3ccc(CNc4ncccc4C(=O)N[C@@H](C)c4ccc(F)c(F)c4)s3)cc12 [Example 4.33] |  |
| < 1 | < 0.1 |  |  | Nc1ncnc2ccc(-c3ccc(CNc4ncccc4C(=O)NCc4cc(F)c(F)c(F)c4)s3)cc12 [Example 3.23, 2-({[5-(4-aminoquinazolin-6-yl)thiophen-2-yl]methyl}amino)-N-(3,4,5-trifluorobenzyl)pyridine-3-carboxamide (TFA salt)] |  |
